Source: patent publication US8524737B2, “Bi- and polycyclic substituted isoquinoline and isoquinolinone derivatives” (Sanofi, priority 2008, dated 2013)

Biological target: T1, human recombinant ROCK II (Homo sapiens, UniProt O75116)
T1 construct: recombinant human ROCK-II residues 11-552; His6 (N); purchased Millipore GmbH, Schwalbach, Germany
Experiment: Determination of Rho Kinase Inhibition (ROCK II, Caliper peptide phosphorylation assay)
Assay type: biochemical
Conditions: tested in the form (salt or free base) obtained in the examples
Method: Determination of Rho Kinase Inhibition To measure Rho-kinase inhibition, IC50 values were determined according to the following protocol: Active human recombinant ROCK II (N-terminal His6-tagged recombinant human ROCK-II residues 11-552) was purchased from Millipore GmbH, Schwalbach, Germany. The peptide substrate, Fluorescein-AKRRRLSSLRA-COOH, was obtained from JPT Peptide Technologies, Berlin, Germany. Adenosine-5′-triphosphate (ATP), bovine serum albumine (BSA), dimethylsulphoxide (DMSO), 4-(2-hydroxyethyl)piperazine-1-ethanesulfonic acid (Hepes), Brij-35, dithiothreitol (DTT) and Pluronic F-68 were purchased from Sigma-Aldrich, Munich, Germany. Tris(hydroxymethyl)-aminomethane (Tris), magnesium chloride, NaOH, 1M HCl and EDTA were obtained from Merck Biosciences, Darmstadt, Germany. “Complete” protease inhibitor was from Roche Diagnostics, Mannheim, Germany. Test compounds were diluted to the appropriate concentrations in buffer 1 (25 mM Tris-HCl, pH 7.4, 5 mM MgCl2, 2 mM DTT, 0.02% (w/v) BSA, 0.01% Pluronic F-68 and 3% DMSO). The ROCK II enzyme was diluted to a concentration of 100 ng/ml in buffer 2 (25 mM Tris-HCl, pH 7.4, 5 mM MgCl2, 2 mM DTT and 0.02% (w/v) BSA). The peptide substrate and ATP were diluted to concentrations of 3 μM and 120 μM, respectively, in the buffer 2. Two μl of the compound solution were mixed with 2 μl of the diluted enzyme in a 384-well small volume microtiter plate (Greiner, Bio-One, Frickenhausen, Germany), and the kinase reaction was initiated by addition of 2 μl of the solution containing peptide substrate and ATP. After 60 min incubation at 32° C., the reaction was stopped by addition of 20 μl of a solution containing 100 mM Hepes-NaOH, pH 7.4, 0.015% (v/v) Brij-35, 45 mM EDTA and 0.227% chip coating reagent 1 (Caliper Lifescience Inc, Hopkinton, Mass.). Phosphorylation of the substrate peptide was then detected on a Caliper 3000 instrument essentially as described by Pommereau et al (J. Biomol. Screening 2004, 9(5), 409-416). Separation conditions were as follows: Pressure −1.3 psi, upstream voltage −1562 V, downstream voltage −500 V, sample sip time 200 ms. Positive controls (buffer 1 instead of compound) and negative controls (buffer 1 instead of compound and buffer 2 instead of ROCK II) were run in parallel on each plate. The following products/compounds were tested in said assay by using the respective form (salt or free base) obtained as in the examples described above and the following activities were measured

T1 sequence (O75116 11-552): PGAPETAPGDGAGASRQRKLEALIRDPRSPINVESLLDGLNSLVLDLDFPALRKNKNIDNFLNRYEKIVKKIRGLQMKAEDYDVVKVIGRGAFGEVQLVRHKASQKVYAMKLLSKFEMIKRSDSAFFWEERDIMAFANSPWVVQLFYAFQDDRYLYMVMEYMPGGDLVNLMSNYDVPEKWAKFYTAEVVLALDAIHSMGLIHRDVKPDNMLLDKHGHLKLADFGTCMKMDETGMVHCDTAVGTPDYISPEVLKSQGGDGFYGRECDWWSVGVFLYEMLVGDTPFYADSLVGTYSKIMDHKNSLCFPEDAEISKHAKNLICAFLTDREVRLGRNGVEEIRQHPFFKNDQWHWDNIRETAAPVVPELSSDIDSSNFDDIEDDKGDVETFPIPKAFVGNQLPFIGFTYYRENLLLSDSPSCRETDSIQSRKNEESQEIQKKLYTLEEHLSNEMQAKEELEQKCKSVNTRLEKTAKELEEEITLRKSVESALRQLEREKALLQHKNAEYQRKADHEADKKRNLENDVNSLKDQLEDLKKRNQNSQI

| Compound | IC50 [µM] | pIC50 |
| --- | --- | --- |
| NC1C2CC3CC1CC(Oc1cc4cc[nH]c(=O)c4cc1Cl)(C3)C2 (single isomer, unassigned) [Example 1, 6-(4-Amino-adamantan-1-yloxy)-7-chloro-2H-isoquinolin-1-one] | 0.01 to 0.1 |  |
| C=CCC1(N)C2CC3CC1CC(Oc1cc4cc[nH]c(=O)c4cc1Cl)(C3)C2 (single isomer, unassigned) [Example 3, 6-(4-Allyl-4-amino-adamantan-1-yloxy)-7-chloro-2H-isoquinolin-1-one] | 0.01 to 0.1 |  |
| C=CCC1(N)C2CC3CC1CC(Oc1cc4cc[nH]c(=O)c4cc1Cl)(C3)C2 (single isomer, unassigned) [Example 4, 6-(4-Allyl-4-amino-adamantan-1-yloxy)-7-chloro-2H-isoquinolin-1-one] | 0.1 to 1 |  |
| CCCC1(N)C2CC3CC1CC(Oc1cc4cc[nH]c(=O)c4cc1Cl)(C3)C2 (single isomer, unassigned) [Example 5, 6-(4-Amino-4-propyl-adamantan-1-yloxy)-7-chloro-2H-isoquinolin-1-one] | 0.01 to 0.1 |  |
| CCCC1(N)C2CC3CC1CC(Oc1cc4cc[nH]c(=O)c4cc1Cl)(C3)C2 (single isomer, unassigned) [Example 6, 6-(4-Amino-4-propyl-adamantan-1-yloxy)-7-chloro-2H-isoquinolin-1-one] | 0.1 to 1 |  |
| CC1(N)C2CC3CC1CC(Oc1cc4cc[nH]c(=O)c4cc1Cl)(C3)C2 (single isomer, unassigned) [Example 8, 6-(4-Amino-4-methyl-adamantan-1-yloxy)-7-chloro-2H-isoquinolin-1-one] | 0.01 to 0.1 |  |
| NC1(c2ccccc2)C2CC3CC1CC(Oc1cc4cc[nH]c(=O)c4cc1Cl)(C3)C2 (single isomer, unassigned) [Example 9, 6-(4-Amino-4-phenyl-adamantan-1-yloxy)-7-chloro-2H-isoquinolin-1-one] | 0.1 to 1 |  |
| NC1(C2CC2)C2CC3CC1CC(Oc1cc4cc[nH]c(=O)c4cc1Cl)(C3)C2 (single isomer, unassigned) [Example 11, 6-(4-Amino-4-cyclopropyl-adamantan-1-yloxy)-7-chloro-2H-isoquinolin-1-one] | 0.01 to 0.1 |  |
| O=c1[nH]ccc2cc(OC34CC5CC(C3)C(NCc3ccccc3)C(C5)C4)c(Cl)cc12 (single isomer, unassigned) [Example 12, 6-(4-Benzylamino-adamantan-1-yloxy)-7-chloro-2H-isoquinolin-1-one] | 0.1 to 1 |  |
| N[C@]12CC3CC(C1)[C@H](Oc1cc4cc[nH]c(=O)c4cc1Cl)C(C3)C2 (single isomer, unassigned) [Example 14, Cis-6-(5-Amino-adamantan-2-yloxy)-7-chloro-2H-isoquinolin-1-one] | ≤ 0.01 |  |
| N[C@]12CC3CC(C1)[C@@H](Oc1cc4cc[nH]c(=O)c4cc1Cl)C(C3)C2 (single isomer, unassigned) [Example 15, Trans-6-(5-Amino-adamantan-2-yloxy)-7-chloro-2H-isoquinolin-1-one] | ≤ 0.01 |  |
| Cc1cc2c(=O)[nH]ccc2cc1OC1C2CC3CC1CC(N)(C3)C2 (single isomer, unassigned) [Example 16, 6-(5-Amino-adamantan-2-yloxy)-7-methyl-2H-isoquinolin-1-one] |  | +++++++ (8.0≦pIC50) |
| NC12C[C@H]3C[C@@H](C1)CC(Oc1cc4cc[nH]c(=O)c4cc1Cl)(C3)C2 [Example 13, 6-(3-Amino-adamantan-1-yloxy)-7-chloro-2H-isoquinolin-1-one] | 0.1 to 1 |  |
| N[C@H]1C[C@H]2COC[C@@H](C1)[C@H]2Oc1cc2cc[nH]c(=O)c2cc1Cl [Example 17, 6-{[(7-Endo,9-anti)-7-amino-3-oxabicyclo[3.3.1]non-9-yl]oxy}-7-chloroisoquinolin-1(2H)-one] | 0.01 to 0.1 |  |
| N[C@H]1C[C@H]2COC[C@@H](C1)[C@@H]2Oc1cc2cc[nH]c(=O)c2cc1Cl [Example 18, 6-{[(7-endo,9-syn)-7-amino-3-oxabicyclo[3.3.1]non-9-yl]oxy}-7-chloroisoquinolin-1(2H)-one] | 0.01 to 0.1 |  |
| N[C@H]1C[C@H]2CSC[C@@H](C1)[C@H]2Oc1cc2cc[nH]c(=O)c2cc1Cl [Example 19, 6-{[(7-Endo,9-anti)-7-amino-3-thiabicyclo[3.3.1]non-9-yl]oxy}-7-chloroisoquinolin-1(2H)-one] | 0.01 to 0.1 |  |
| N[C@H]1C[C@H]2CSC[C@@H](C1)[C@@H]2Oc1cc2cc[nH]c(=O)c2cc1Cl [Example 20, 6-{[(7-endo,9-syn)-7-amino-3-thiabicyclo[3.3.1]non-9-yl]oxy}-7-chloroisoquinolin-1(2H)-one] | 0.01 to 0.1 |  |
| O=c1[nH]ccc2cc(O[C@H]3CC[C@@]4(CCCN4)CC3)c(Cl)cc12 [Example 22, 6-(1-Aza-spiro[4.5]dec-8-yloxy)-7-chloro-2H-isoquinolin-1-one] | 0.01 to 0.1 |  |
